Patent US10294219B2 (priority 2015, dated 2019)
Where two headings read alike, the source gives them in different places.

How the values were obtained:
[1] = data from US20130324496A1, cited from earlier work
[2] = Changes of crystal form at different temperatures; format: physicochemical
[3] = Solvent-based screening of crystal form changes; format: physicochemical
[4] = Light stability assessment (LS-3000 light test chamber, HPLC purity after illumination); format: physicochemical; details: 1.2 million lux·hours of illumination, 4400 lux for 12 days, layer no more than 1 mm
Source text: Samples of different crystal forms were placed in a watch glass and spread to a thin layer with thickness of no more than 1 mm, placed in a LS-3000 light test chamber with a light intensity of 4400 lux for 12 days.
(2) The purity of the sample after illumination was checked by HPLC and compared with the initial purity.

[5] = 100 mg suspended in 200 μL Ethyl acetate
[6] = 100 mg suspended in 200 μL MTBE

**Q.** For `COC(=O)N[C@H](C(=O)N1CC2(CC2)C[C@H]1c1ncc(-c2ccc3c(c2)C(F)(F)c2cc(-c4ccc5nc([C@@H]6[C@H]7CC[C@H](C7)N6C(=O)[C@@H](NC(=O)OC)C(C)C)[nH]c5c4)ccc2-3)[nH]1)C(C)C` [monoacetone solvate], which “HPLC purity decreased, %” value ([1]; 1.2 million lux·hours) is on record?
**A.** 6.3%

**Q.** Which “HPLC purity decreased, %” value ([1]; 1.2 million lux·hours) does the source give for `COC(=O)N[C@H](C(=O)N1CC2(CC2)C[C@H]1c1ncc(-c2ccc3c(c2)C(F)(F)c2cc(-c4ccc5nc([C@@H]6[C@H]7CC[C@H](C7)N6C(=O)[C@@H](NC(=O)OC)C(C)C)[nH]c5c4)ccc2-3)[nH]1)C(C)C` [Ledipasvir diacetone solvate] here?
**A.** 6.3%

**Q.** For `COC(=O)N[C@H](C(=O)N1CC2(CC2)C[C@H]1c1ncc(-c2ccc3c(c2)C(F)(F)c2cc(-c4ccc5nc([C@@H]6[C@H]7CC[C@H](C7)N6C(=O)[C@@H](NC(=O)OC)C(C)C)[nH]c5c4)ccc2-3)[nH]1)C(C)C` [crystal form II of Ledipasvir], which “HPLC purity decreased, %” value ([1]; 1.2 million lux·hours) is on record?
**A.** 6.3%

**Q.** Which “Crystal Form” value ([2]; 120° C., nitrogen protection) does the source give for `COC(=O)N[C@H](C(=O)N1CC2(CC2)C[C@H]1c1ncc(-c2ccc3c(c2)C(F)(F)c2cc(-c4ccc5nc([C@@H]6[C@H]7CC[C@H](C7)N6C(=O)[C@@H](NC(=O)OC)C(C)C)[nH]c5c4)ccc2-3)[nH]1)C(C)C` [crystal form B of Ledipasvir, LDV-acetone-MTBE ternary solvate] here?
**A.** crystal form E

**Q.** What about the “Crystal Form” value ([2]; 120° C., nitrogen protection, listed as crystal form B) of the same compound?
**A.** crystal form E

**Q.** What about the “Crystal Form” value ([2]; 180° C., nitrogen protection) of the same compound?
**A.** amorphous form

**Q.** And the “Crystal Form” value ([2]; Room temperature)?
**A.** crystal form B

**Q.** What about the “Solvent-based screening result (change of crystal form)” value ([3]; 100 mg suspended in 200 μL ACN) of the same compound?
**A.** crystal form D

**Q.** What about the “Solvent-based screening result (change of crystal form)” value [3, 5] of the same compound?
**A.** solution

**Q.** And the “Solvent-based screening result (change of crystal form)” value [3, 6]?
**A.** amorphous form

**Q.** And the “HPLC purity decreased, %” value [4]?
**A.** 0.6%

**Q.** What about the “HPLC purity decreased, %” value ([4]; listed as LDV-acetone-MTBE ternary solvate) of the same compound?
**A.** 0.6%

**Q.** What about the “HPLC purity decreased, %” value ([4]; listed as Ledipasvir crystal form B) of the same compound?
**A.** 0.6%

**Q.** Which “Crystal Form” value ([2]; 120° C., nitrogen protection) does the source give for `COC(=O)N[C@H](C(=O)N1CC2(CC2)C[C@H]1c1ncc(-c2ccc3c(c2)C(F)(F)c2cc(-c4ccc5nc([C@@H]6[C@H]7CC[C@H](C7)N6C(=O)[C@@H](NC(=O)OC)C(C)C)[nH]c5c4)ccc2-3)[nH]1)C(C)C` [crystal form A of Ledipasvir, LDV-acetonitrile-MTBE ternary solvate] here?
**A.** crystal form C

**Q.** And the “Crystal Form” value ([2]; 120° C., nitrogen protection, listed as crystal form A)?
**A.** crystal form C

**Q.** And the “Crystal Form” value ([2]; 180° C., nitrogen protection)?
**A.** amorphous form

**Q.** What about the “Crystal Form” value ([2]; Room temperature) of the same compound?
**A.** crystal form A

**Q.** What about the “Solvent-based screening result (change of crystal form)” value ([3]; 100 mg suspended in 200 μL ACN) of the same compound?
**A.** crystal form D

**Q.** And the “Solvent-based screening result (change of crystal form)” value [3, 5]?
**A.** solution

**Q.** What about the “Solvent-based screening result (change of crystal form)” value [3, 6] of the same compound?
**A.** amorphous form

**Q.** What about the “HPLC purity decreased, %” value [4] of the same compound?
**A.** 2.0%

**Q.** What about the “HPLC purity decreased, %” value ([4]; listed as LDV-acetonitrile-MTBE ternary solvate) of the same compound?
**A.** 2.0%

**Q.** What about the “HPLC purity decreased, %” value ([4]; listed as Ledipasvir crystal form A) of the same compound?
**A.** 2.0%

**Q.** For `COC(=O)N[C@H](C(=O)N1CC2(CC2)C[C@H]1c1ncc(-c2ccc3c(c2)C(F)(F)c2cc(-c4ccc5nc([C@@H]6[C@H]7CC[C@H](C7)N6C(=O)[C@@H](NC(=O)OC)C(C)C)[nH]c5c4)ccc2-3)[nH]1)C(C)C` [crystal form I of Ledipasvir], which “HPLC purity decreased, %” value ([1]; 900,000 lux·hours) is on record?
**A.** 6.6%

**Q.** Which “HPLC purity decreased, %” value ([1]; 1.2 million lux·hours) does the source give for `COC(=O)N[C@H](C(=O)N1CC2(CC2)C[C@H]1c1ncc(-c2ccc3c(c2)C(F)(F)c2cc(-c4ccc5nc([C@@H]6[C@H]7CC[C@H](C7)N6C(=O)[C@@H](NC(=O)OC)C(C)C)[nH]c5c4)ccc2-3)[nH]1)C(C)C` [Ledipasvir amorphous, Ledipasvir] here?
**A.** 8.3%
